What was measured:
Assay type in all cases: cell-based
[1] = tested on: Enterobacter aerogenes 0502112 (ESBL); assay: Growth and enzymatic activity on ChromID CPS-based selective media; parameters: key to the marks not given beside the values; conditions: cefpodoxime 4 mg/l (T), cefepime 0.25 mg/l (A), cefamandole 3 mg/l (B), cefuroxime 3 mg/l (C), each with 300 mg/l cloxacillin
From the text: (§1) Choice of strains: The inventors selected strains which make it possible to evaluate the activity of antibiotics with respect to Gram-negative species: enterobacteria and nonfermenting bacilli. In particular, ESBL-producing strains, high-level cephalosporinase-producing strains (HL Case) and strains without a particular resistance profile, termed wild-type strains, were used.
(§2) Preparation of media: The media tested were media composed of the peptone base of the ChromID CPS medium (bioMérieux ref 43541) to which were added, after autoclaving, in molten media, 300 mg/l cloxacillin and, for medium T: 4 mg/l cefpodoxime, for medium A: 0.25 mg/L of cefepime, for medium B: 3 mg/l of cefamandole and for medium C: 3 mg/l of cefuroxime.
(§3) Inoculation of media: The media are inoculated by carrying out a 3-quadrant streaking method using bacterial suspensions at 0.5 McF. The media are then incubated for 24 hours at 37° C.
(§4) Reading of media: The media are observed visually after 18 h and 24 hours of incubation, the growth density and also the colorations and coloration strengths are evaluated according to the scale below: • − or 0: absence of growth or of expression of enzymatic acitivity (i.e. no coloration) • +: weak growth, or enzymatic activity • ++: very strong growth density or strong enzymatic acitivity (very strong coloration)

[2] = tested on: Escherichia coli 0411146 (ESBL); assay: as above; parameters: key to the marks not given beside the values; conditions: cefpodoxime 4 mg/l (T), cefepime 0.25 mg/l (A), cefamandole 3 mg/l (B), cefuroxime 3 mg/l (C), each with 300 mg/l cloxacillin
From the text: as §1, §2, §3, §4

[3] = tested on: Enterobacter spp 9306069 (HL case); assay: as above; parameters: key to the marks not given beside the values; conditions: cefpodoxime 4 mg/l (T), cefepime 0.25 mg/l (A), cefamandole 3 mg/l (B), cefuroxime 3 mg/l (C), each with 300 mg/l cloxacillin
From the text: as §1, §2, §3, §4

[4] = tested on: Klebsiella oxytoca 0502094 (ESBL); assay: as above; parameters: key to the marks not given beside the values; conditions: cefpodoxime 4 mg/l (T), cefepime 0.25 mg/l (A), cefamandole 3 mg/l (B), cefuroxime 3 mg/l (C), each with 300 mg/l cloxacillin
From the text: as §1, §2, §3, §4

[5] = tested on: Escherichia coli 0505101 (ESBL); assay: as above; parameters: Enz act.: key to the marks not given beside the values; conditions: cefpodoxime 4 mg/l (T), cefepime 0.25 mg/l (A), cefamandole 3 mg/l (B), cefuroxime 3 mg/l (C), each with 300 mg/l cloxacillin
From the text: as §1, §2, §3, §4

[6] = tested on: Morganella morganii 9904104 (HL case); assay: as above; conditions: cefpodoxime 4 mg/l (T), cefepime 0.25 mg/l (A), cefamandole 3 mg/l (B), cefuroxime 3 mg/l (C), each with 300 mg/l cloxacillin
From the text: as §1, §2, §3, §4

[7] = tested on: Proteus mirabilis 0105109 (HL case); assay: as above; conditions: cefpodoxime 4 mg/l (T), cefepime 0.25 mg/l (A), cefamandole 3 mg/l (B), cefuroxime 3 mg/l (C), each with 300 mg/l cloxacillin
From the text: as §1, §2, §3, §4

[8] = tested on: Proteus mirabilis 0105105 (HL case); assay: as above; conditions: cefpodoxime 4 mg/l (T), cefepime 0.25 mg/l (A), cefamandole 3 mg/l (B), cefuroxime 3 mg/l (C), each with 300 mg/l cloxacillin
From the text: as §1, §2, §3, §4

[9] = tested on: Klebsiella oxytoca 0105100 (HL case); assay: as above; conditions: cefpodoxime 4 mg/l (T), cefepime 0.25 mg/l (A), cefamandole 3 mg/l (B), cefuroxime 3 mg/l (C), each with 300 mg/l cloxacillin
From the text: as §1, §2, §3, §4

[10] = tested on: Serratia fonticola 8001047 (Wild-type); assay: as above; conditions: cefpodoxime 4 mg/l (T), cefepime 0.25 mg/l (A), cefamandole 3 mg/l (B), cefuroxime 3 mg/l (C), each with 300 mg/l cloxacillin
From the text: as §1, §2, §3, §4

[11] = tested on: Proteus mirabilis 9709068 (ESBL); assay: as above; conditions: cefpodoxime 4 mg/l (T), cefepime 0.25 mg/l (A), cefamandole 3 mg/l (B), cefuroxime 3 mg/l (C), each with 300 mg/l cloxacillin
From the text: as §1, §2, §3, §4

[12] = tested on: Enterobacter spp 0503037 (Wild-type); assay: as above; conditions: cefpodoxime 4 mg/l (T), cefepime 0.25 mg/l (A), cefamandole 3 mg/l (B), cefuroxime 3 mg/l (C), each with 300 mg/l cloxacillin
From the text: as §1, §2, §3, §4

[13] = tested on: ESBL-producing strains, strains producing an HL Case, wild-type taxon strains; assay: Overall conclusion on the selective media over the strain panel
From the text: as §1, §2, §3, §4

Structure (SMILES): Cn1nnnc1SCC1=C(C(=O)O)N2C(=O)[C@@H](NC(=O)[C@H](O)c3ccccc3)[C@H]2SC1 [Cefamandole, cefamandole]
- Enz act. ([1]; 18 h at 37° C.): ++
- Growth ([1]; 18 h at 37° C.): ++
- Enz act. ([1]; 24 h at 37° C.): ++
- Growth ([1]; 24 h at 37° C.): ++
- Enz act. ([2]; 18 h at 37° C.): ++
- Growth ([2]; 18 h at 37° C.): ++
- Enz act. ([2]; 24 h at 37° C.): ++
- Growth ([2]; 24 h at 37° C.): ++
- Enz act. ([3]; 18 h at 37° C.): ++
- Growth ([3]; 18 h at 37° C.): ++
- Enz act. ([3]; 24 h at 37° C.): ++
- Growth ([3]; 24 h at 37° C.): ++
- Enz act. ([4]; 18 h at 37° C.): ++
- Growth ([4]; 18 h at 37° C.): ++
- Enz act. ([4]; 24 h at 37° C.): ++
- Growth ([4]; 24 h at 37° C.): ++
- Enz act. ([5]; 18 h at 37° C.): ++
- Growth ([5]; 18 h at 37° C.): ++
- Enz act. ([5]; 24 h at 37° C.): ++
- Growth ([5]; 24 h at 37° C.): ++
- Enz act. ([6]; 18 h at 37° C.): −
- Growth ([6]; 18 h at 37° C.): −
- Enz act. ([6]; 24 h at 37° C.): −
- Growth ([6]; 24 h at 37° C.): −
- Enz act. ([7]; 18 h at 37° C.): −
- Growth ([7]; 18 h at 37° C.): −
- Enz act. ([7]; 24 h at 37° C.): −
- Growth ([7]; 24 h at 37° C.): −
- Enz act. ([8]; 18 h at 37° C.): −
- Growth ([8]; 18 h at 37° C.): −
- Enz act. ([8]; 24 h at 37° C.): −
- Growth ([8]; 24 h at 37° C.): −
- Enz act. ([9]; 18 h at 37° C.): +
- Growth ([9]; 18 h at 37° C.): +
- Enz act. ([9]; 24 h at 37° C.): ++
- Growth ([9]; 24 h at 37° C.): +
- Enz act. ([10]; 18 h at 37° C.): +
- Growth ([10]; 18 h at 37° C.): +
- Enz act. ([10]; 24 h at 37° C.): ++
- Growth ([10]; 24 h at 37° C.): +
- Enz act. ([11]; 18 h at 37° C.): −
- Growth ([11]; 18 h at 37° C.): +
- Enz act. ([11]; 24 h at 37° C.): +
- Growth ([11]; 24 h at 37° C.): +
- Enz act. ([12]; 18 h at 37° C.): ++
- Growth ([12]; 18 h at 37° C.): ++
- Enz act. ([12]; 24 h at 37° C.): ++
- Growth ([12]; 24 h at 37° C.): ++

Structure (SMILES): CO/N=C(\C(=O)N[C@@H]1C(=O)N2C(C(=O)[O-])=C(C[N+]3(C)CCCC3)CS[C@H]12)c1csc(N)n1 [Cefepime, cefepime]
- Enz act. ([1]; 18 h at 37° C.): ++
- Growth ([1]; 18 h at 37° C.): ++
- Enz act. ([1]; 24 h at 37° C.): ++
- Growth ([1]; 24 h at 37° C.): ++
- Enz act. ([2]; 18 h at 37° C.): ++
- Growth ([2]; 18 h at 37° C.): ++
- Enz act. ([2]; 24 h at 37° C.): ++
- Growth ([2]; 24 h at 37° C.): ++
- Enz act. ([3]; 18 h at 37° C.): ++
- Growth ([3]; 18 h at 37° C.): ++
- Enz act. ([3]; 24 h at 37° C.): ++
- Growth ([3]; 24 h at 37° C.): ++
- Enz act. ([4]; 18 h at 37° C.): ++
- Growth ([4]; 18 h at 37° C.): ++
- Enz act. ([4]; 24 h at 37° C.): ++
- Growth ([4]; 24 h at 37° C.): ++
- Enz act. ([5]; 18 h at 37° C.): ++
- Growth ([5]; 18 h at 37° C.): ++
- Enz act. ([5]; 24 h at 37° C.): ++
- Growth ([5]; 24 h at 37° C.): ++
- sensitivity and specificity of detection of the ESBL strains ([13]; compared with cefpodoxime, cefamandole, cefuroxime media): best sensitivity and specificity
- discrimination between the ESBL-producing strains, the strains producing an HL Case or the wild-type taxon strains ([13]; medium A: 0.25 mg/L cefepime with 300 mg/l cloxacillin): good discrimination
- Enz act. ([6]; 18 h at 37° C.): −
- Growth ([6]; 18 h at 37° C.): −
- Enz act. ([6]; 24 h at 37° C.): −
- Growth ([6]; 24 h at 37° C.): −
- Enz act. ([7]; 18 h at 37° C.): −
- Growth ([7]; 18 h at 37° C.): −
- Enz act. ([7]; 24 h at 37° C.): −
- Growth ([7]; 24 h at 37° C.): −
- Enz act. ([8]; 18 h at 37° C.): −
- Growth ([8]; 18 h at 37° C.): −
- Enz act. ([8]; 24 h at 37° C.): −
- Growth ([8]; 24 h at 37° C.): −
- Enz act. ([9]; 18 h at 37° C.): −
- Growth ([9]; 18 h at 37° C.): −
- Enz act. ([9]; 24 h at 37° C.): −
- Growth ([9]; 24 h at 37° C.): −
- Enz act. ([10]; 18 h at 37° C.): −
- Growth ([10]; 18 h at 37° C.): −
- Enz act. ([10]; 24 h at 37° C.): −
- Growth ([10]; 24 h at 37° C.): −
- Enz act. ([11]; 18 h at 37° C.): +
- Growth ([11]; 18 h at 37° C.): +
- Enz act. ([11]; 24 h at 37° C.): +
- Growth ([11]; 24 h at 37° C.): +
- Enz act. ([12]; 18 h at 37° C.): −
- Growth ([12]; 18 h at 37° C.): −
- Enz act. ([12]; 24 h at 37° C.): −
- Growth ([12]; 24 h at 37° C.): −

— patent US20120122148A1, “Media For The Specific Detection Of Gram-Negative Bacteria Resistant To Beta-Lactam Antibiotics” (bioMerieux, SA, priority 2009, published 2012)
